Measured values published in PubChem BioAssay AID330 (DTP/NCI, 2004).
Values joined by “and” are separate entries in the source; they are usually repeats but may differ in a detail not shown here. Identical values can stand only once. Toxic doses and inconclusive results are not listed.

Tested on: P388 leukemia ip, CD2F1 mice, survival T/C
Experiment: NCI In Vivo Anticancer Drug Screen. Data for tumor model P388 Leukemia (intraperitoneal) in CD2F1 (CDF1) mice
Conditions: endpoint: median survival time, higher = longer survival
Outline: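 Mice carrying the transplanted tumor received test compound or vehicle. Survival was recorded in each group, and the value is the treated-group measurement divided by that of the vehicle-treated control group.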

[1] = dose: 100.0 mg/kg/injection, schedule: Q01DX001 (ip), vehicle: saline with Tween-80
[2] = dose: 200.0 mg/kg/injection, schedule: Q01DX001 (ip), vehicle: saline with Tween-80
[3] = dose: 400.0 mg/kg/injection, schedule: Q01DX001 (ip), vehicle: saline with Tween-80
[4] = dose: 50.0 mg/kg/injection, schedule: Q01DX005 (ip), vehicle: saline with Tween-80
[5] = dose: 60.0 mg/kg/injection, schedule: Q01DX005 (ip), vehicle: saline with Tween-80
[6] = dose: 120.0 mg/kg/injection, schedule: Q01DX005 (ip), vehicle: saline with Tween-80
[7] = dose: 240.0 mg/kg/injection, schedule: Q01DX005 (ip), vehicle: saline with Tween-80
[8] = dose: 12.5 mg/kg/injection, schedule: Q01DX009 (ip), vehicle: Klucel (hydroxypropylcellulose) (HPC)
[9] = dose: 50.0 mg/kg/injection, schedule: Q01DX009 (ip), vehicle: Klucel (hydroxypropylcellulose) (HPC)
[10] = dose: 12.5 mg/kg/injection, schedule: Q01DX009 (ip), vehicle: saline with Tween-80
[11] = dose: 50.0 mg/kg/injection, schedule: Q01DX009 (ip), vehicle: saline with Tween-80
[12] = dose: 100.0 mg/kg/injection, schedule: Q01DX005 (ip), vehicle: saline with Tween-80
[13] = dose: 200.0 mg/kg/injection, schedule: Q01DX005 (ip), vehicle: saline with Tween-80

With Cn1c(Cl)c(/C=N\Nc2ccc([N+](=O)[O-])cc2[N+](=O)[O-])c2ccccc21 the T/C [1] was 92 % of control, the T/C [2] was 93 % of control and the T/C [3] was 91 % of control.

With CC1OC(OC2CCCc3c(O)c4c(c(O)c32)C(=O)c2ccccc2C4=O)CC(N)C1O (stereo unspecified) the T/C (dose: 1.25 mg/kg/injection, schedule: Q04DX002 (ip), vehicle: water) was 104 % of control and 106 % of control, the T/C (dose: 2.5 mg/kg/injection, schedule: Q04DX002 (ip), vehicle: water) was 98 % of control and 111 % of control and the T/C (dose: 5.0 mg/kg/injection, schedule: Q04DX002 (ip), vehicle: water) was 98 % of control and 106 % of control. For the same compound, the T/C (dose: 10.0 mg/kg/injection, schedule: Q04DX002 (ip), vehicle: water) was 98 % of control and 106 % of control.

For Nc1c(C(=O)O)ccc2c1C(=O)c1ccccc1C2=O, the T/C (dose: 6.25 mg/kg/injection, schedule: Q01DX005 (ip), vehicle: saline with Tween-80) was 96 % of control, the T/C (dose: 12.5 mg/kg/injection, schedule: Q01DX005 (ip), vehicle: saline with Tween-80) was 96 % of control and the T/C (dose: 25.0 mg/kg/injection, schedule: Q01DX005 (ip), vehicle: saline with Tween-80) was 98 % of control. For the same compound, the T/C [4] was 103 % of control.

For CCC(c1ccc(OC)cc1)C(NCC(=O)NNC(=S)Nc1ccccc1)c1ccc(OC)cc1 (stereo unspecified), the T/C [1] was 92 % of control, the T/C [2] was 101 % of control and the T/C [3] was 108 % of control.

For CS(C)=C1C(=O)C(=O)C(=S(C)C)C(=O)C1=O, the T/C [5] was 107 % of control, the T/C [6] was 104 % of control and the T/C [7] was 100 % of control.

With C/C=C/C(=O)Sc1ccccc1 the T/C [8] was 108 % of control, the T/C (dose: 25.0 mg/kg/injection, schedule: Q01DX009 (ip), vehicle: Klucel (hydroxypropylcellulose) (HPC)) was 105 % of control and the T/C [9] was 101 % of control and 105 % of control.

For C[C@H]1CC(=O)SC1=O, the T/C (dose: 25.0 mg/kg/injection, schedule: Q04DX002 (ip), vehicle: saline) was 100 % of control and the T/C (dose: 50.0 mg/kg/injection, schedule: Q04DX002 (ip), vehicle: saline) was 93 % of control.

In the case of O=[N+]([O-])c1cc2c(cc1Cl)C1C(C3C2C2(Cl)C(Cl)=C(Cl)C3(Cl)C2(Cl)Cl)C2(Cl)C(Cl)=C(Cl)C1(Cl)C2(Cl)Cl (stereo unspecified), the T/C (dose: 50.0 mg/kg/injection, schedule: Q01DX009 (ip), vehicle: saline) is reported as 101 % of control, the T/C (dose: 100.0 mg/kg/injection, schedule: Q01DX009 (ip), vehicle: saline) is reported as 109 % of control and the T/C (dose: 200.0 mg/kg/injection, schedule: Q01DX009 (ip), vehicle: saline) is reported as 106 % of control.

In the case of Cc1cc(Nc2ccc(N(CCCl)CCCl)cc2)c(C)cc1O, the T/C (dose: 200.0 mg/kg/injection, schedule: Q04DX003 (ip), vehicle: Klucel (hydroxypropylcellulose) (HPC)) is reported as 159 % of control.

CCSc1nc2ccc(Nn3nnnc3-c3ccccc3)cc2s1 was tested, and the T/C (dose: 1.56 mg/kg/injection, schedule: Q01DX009 (ip), vehicle: Klucel (hydroxypropylcellulose) (HPC)) was 105 % of control and 94 % of control, the T/C (dose: 3.12 mg/kg/injection, schedule: Q01DX009 (ip), vehicle: Klucel (hydroxypropylcellulose) (HPC)) was 99 % of control and 100 % of control and the T/C (dose: 6.25 mg/kg/injection, schedule: Q01DX009 (ip), vehicle: Klucel (hydroxypropylcellulose) (HPC)) was 93 % of control. The T/C [8] was 89 % of control and 95 % of control, the T/C [9] was 93 % of control and the T/C (dose: 200.0 mg/kg/injection, schedule: Q01DX009 (ip), vehicle: Klucel (hydroxypropylcellulose) (HPC)) was 92 % of control.

In the case of O=c1c(Cc2ccccc2)coc2ccccc12, the T/C [5] is reported as 106 % of control, the T/C [6] is reported as 100 % of control and the T/C [7] is reported as 103 % of control.

For C=C[C@@]1(C)CC(=O)[C@]2(O)[C@@]3(C)[C@@H](O)CCC(C)(C)[C@@H]3[C@H](O)[C@@H](OC(C)=O)[C@@]2(C)O1, the T/C (dose: 6.25 mg/kg/injection, schedule: Q01DX005 (ip), vehicle: saline + Tween-80 + alcohol) was 95 % of control and the T/C (dose: 12.5 mg/kg/injection, schedule: Q01DX005 (ip), vehicle: saline + Tween-80 + alcohol) was 102 % of control.

For CCn1c2ccccc2c2c3c(NCCCN(C)C)cc(C)nc3ccc21, the T/C (dose: 5.5 mg/kg/injection, schedule: Q01DX009 (ip), vehicle: suspension in saline) was 93 % of control, the T/C (dose: 11.0 mg/kg/injection, schedule: Q01DX009 (ip), vehicle: suspension in saline) was 97 % of control and the T/C (dose: 22.0 mg/kg/injection, schedule: Q01DX009 (ip), vehicle: suspension in saline) was 97 % of control.

NC(=O)NC(c1ccc(O)cc1)c1cc2c(cc1O)OCO2 (stereo unspecified) was tested, and the T/C (dose: 60.0 mg/kg/injection, schedule: Q01DX005 (ip), vehicle: Klucel + Tween-80) was 86 % of control, the T/C (dose: 120.0 mg/kg/injection, schedule: Q01DX005 (ip), vehicle: Klucel + Tween-80) was 86 % of control and the T/C (dose: 240.0 mg/kg/injection, schedule: Q01DX005 (ip), vehicle: Klucel + Tween-80) was 86 % of control.

O=c1c2ccccc2oc2c(Br)c3c(c(O)c12)CCCC3 was tested, and the T/C (dose: 50.0 mg/kg/injection, schedule: Q01DX005 (ip), vehicle: Klucel (hydroxypropylcellulose) (HPC)) was 103 % of control, the T/C (dose: 100.0 mg/kg/injection, schedule: Q01DX005 (ip), vehicle: Klucel (hydroxypropylcellulose) (HPC)) was 87 % of control and the T/C (dose: 200.0 mg/kg/injection, schedule: Q01DX005 (ip), vehicle: Klucel (hydroxypropylcellulose) (HPC)) was 96 % of control.

For O=C(COc1cc(Cl)c(Cl)cc1Cl)OCCOc1cc(Cl)c(Cl)cc1Cl, the T/C (dose: 1.0 mg/kg/injection, schedule: Q01DX009 (ip), vehicle: saline with Tween-80) was 100 % of control, the T/C (dose: 2.0 mg/kg/injection, schedule: Q01DX009 (ip), vehicle: saline with Tween-80) was 100 % of control and the T/C (dose: 4.0 mg/kg/injection, schedule: Q01DX009 (ip), vehicle: saline with Tween-80) was 95 % of control.

In the case of O.O.O=S(=O)(O)C(F)(F)F.[NH2-].[NH2-].[NH2-].[NH2-].[Ru+3], the T/C (dose: 12.5 mg/kg/injection, schedule: Q04DX003 (ip), vehicle: saline) is reported as 115 % of control, the T/C (dose: 25.0 mg/kg/injection, schedule: Q04DX003 (ip), vehicle: saline) is reported as 124 % of control and the T/C (dose: 100.0 mg/kg/injection, schedule: Q04DX003 (ip), vehicle: saline) is reported as 157 % of control.

CCCCCCCCCCCCCCCCCC(=O)[O][Pb]([CH3])([CH3])[CH3] was tested, and the T/C (dose: 1.25 mg/kg/injection, schedule: Q01DX009 (ip), vehicle: Klucel (hydroxypropylcellulose) (HPC)) was 107 % of control, the T/C (dose: 2.5 mg/kg/injection, schedule: Q01DX009 (ip), vehicle: Klucel (hydroxypropylcellulose) (HPC)) was 113 % of control and the T/C (dose: 5.0 mg/kg/injection, schedule: Q01DX009 (ip), vehicle: Klucel (hydroxypropylcellulose) (HPC)) was 101 % of control. For the same compound, the T/C (dose: 6.25 mg/kg/injection, schedule: Q04DX003 (ip), vehicle: Klucel (hydroxypropylcellulose) (HPC)) was 94 % of control, the T/C (dose: 12.5 mg/kg/injection, schedule: Q04DX003 (ip), vehicle: Klucel (hydroxypropylcellulose) (HPC)) was 111 % of control and the T/C (dose: 25.0 mg/kg/injection, schedule: Q04DX003 (ip), vehicle: Klucel (hydroxypropylcellulose) (HPC)) was 92 % of control.

In the case of O=C1NC(=O)c2cc(C(F)(F)F)ccc21, the T/C (dose: 3.0 mg/kg/injection, schedule: Q01DX009 (ip), vehicle: saline with Tween-80) is reported as 95 % of control, the T/C (dose: 6.0 mg/kg/injection, schedule: Q01DX009 (ip), vehicle: saline with Tween-80) is reported as 104 % of control and the T/C (dose: 12.0 mg/kg/injection, schedule: Q01DX009 (ip), vehicle: saline with Tween-80) is reported as 90 % of control.

For C=CCOc1ccccc1N/N=C(\Cl)C(=O)OCC, the T/C [10] was 124 % of control, the T/C (dose: 25.0 mg/kg/injection, schedule: Q01DX009 (ip), vehicle: saline with Tween-80) was 120 % of control and the T/C [11] was 121 % of control.

For CN(C)/N=C/C=C1\N=C(c2ccccc2)OC1=O, the T/C [4] was 107 % of control, the T/C [12] was 104 % of control and the T/C [13] was 106 % of control.

For COC(=O)/C=C(\I)C(=O)OC, the T/C (dose: 3.13 mg/kg/injection, schedule: Q01DX009 (ip), vehicle: saline with Tween-80) was 104 % of control, the T/C (dose: 6.25 mg/kg/injection, schedule: Q01DX009 (ip), vehicle: saline with Tween-80) was 101 % of control and the T/C [10] was 92 % of control.

In the case of O=C(O)CC(=O)Nc1ccccc1S, the T/C [11] is reported as 102 % of control, the T/C (dose: 100.0 mg/kg/injection, schedule: Q01DX009 (ip), vehicle: saline with Tween-80) is reported as 90 % of control and the T/C (dose: 200.0 mg/kg/injection, schedule: Q01DX009 (ip), vehicle: saline with Tween-80) is reported as 101 % of control.

In the case of Cc1cc(/C=C2\SC(=S)NC2=O)cc(C)c1O, the T/C [4] is reported as 110 % of control, the T/C [12] is reported as 94 % of control and the T/C [13] is reported as 90 % of control.
